Assay [1] relates to HCV genotype 1b (Con1) replicon in HUH-7 cells. In words: HCV replicon luciferase reporter assay, genotype 1b. Format: cell-based. The conditions noted are these: Hepatitis C virus, 72 h, genotype 1b replicon, 3 days incubation. The gist of the method:
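Replication was read as Renilla luciferase signal, using 7.5 μM EnduRen substrate with a 2-h incubation at 37 °C. The signal came from a HUH-7 line constitutively expressing a luciferase-tagged 1b (Con1) replicon carrying S1179I.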

For assay [2], the system named is HCV genotype 1a (H77 strain) replicon in HUH-7 cells. In words: HCV replicon luciferase reporter assay, genotype 1a. Format: cell-based. The conditions noted are these: Hepatitis C virus, 72 h, genotype 1a replicon, 3 days incubation. In a few lines: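 Stable HUH-7 line carrying luciferase-reporter genotype 1a (H77) replicon with adaptive NS3 P1496L and NS5A S2204I mutations; 3.0×10^3 cells/well in 4% FCS, 0.5% DMSO, twenty-point 3-fold titration, 3 days at 37 °C. Renilla luminescence with 7.5 μM EnduRen; EC50 by four-parameter logistic fit; CC50 by multiplexed Cell Titer-Blue.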

Where two headings read alike, the source gives them in different places.

One may read the EC50 as the concentration at which the effect is half-maximal. Consider `C[C@@H]1CC/C=C\[C@@H]2C[C@@]2(C(=O)NS(=O)(=O)C2(C)CC2)NC(=O)[C@@H]2C[C@@H](Oc3nc4c(c5ccccc35)CCCO4)CN2C(=O)[C@@H](NC(=O)OC(C)(C)C(F)(F)F)[C@H](C)O1` [Compound 2305, 1,1,1-trifluoro-2-methylpropan-2-yl ((2R,6S,7S,9R,13aS,14aR,16aS,Z)-2-((2,3-dihydro-1H-pyrano[2,3-c]isoquinolin-6-yl)oxy)-7,9-dimethyl-14a-(((1-methylcyclopropyl)sulfonyl)carbamoyl)-5,16-dioxo-2,3,5,6,7,9,10,11,13a,14,14a,15,16,16a-tetradecahydro-1H-cyclopropa[i]pyrrolo[1,2-e][1,5,8]oxadiazacyclopentadecin-6-yl)carbamate], for which the EC50 was 0.51 to 1 nM in assay [1] (read-out: LE_1b (EC50, range)) and 0.51 to 1 nM in assay [2] (read-out: LE_1a (EC50, range)).
On to `COc1cnc(O[C@@H]2C[C@H]3C(=O)N[C@]4(C(=O)NS(=O)(=O)C5(C)CC5)C[C@H]4/C=C\CC[C@@H](C)O[C@@H](C)[C@H](NC(=O)OC(C)(C)C(F)(F)F)C(=O)N3C2)c2cc(F)ccc12` [Compound 2007, 1,1,1-trifluoro-2-methylpropan-2-yl ((2R,6S,7S,9R,13aS,14aR,16aS,Z)-2-((7-fluoro-4-methoxyisoquinolin-1-yl)oxy)-7,9-dimethyl-14a-(((1-methylcyclopropyl)sulfonyl)carbamoyl)-5,16-dioxo-2,3,5,6,7,9,10,11,13a,14,14a,15,16,16a-tetradecahydro-1H-cyclopropa[i]pyrrolo[1,2-e][1,5,8]oxadiazacyclopentadecin-6-yl)carbamate], for which the EC50 was 0.24 nM in assay [1] (read-out: LE_1b (EC50)); 0.1 to 0.5 nM in assay [1] (read-out: LE_1b (EC50, range)); 0.63 nM in assay [2] (read-out: LE_1a (EC50)); 0.51 to 1 nM in assay [2] (read-out: LE_1a (EC50, range)).
In the case of `CC[C@@H]1O[C@H](C)CC/C=C\[C@@H]2C[C@@]2(C(=O)NS(=O)(=O)C2CC2)NC(=O)[C@@H]2C[C@@H](Oc3nccc4cc(OC)ccc34)CN2C(=O)[C@H]1NC(=O)OC(C)(C)C(F)(F)F` [Compound 1007, 1,1,1-trifluoro-2-methylpropan-2-yl ((2R,6S,7S,9R,13aS,14aR,16aS,Z)-14a-((cyclopropylsulfonyl)carbamoyl)-7-ethyl-2-((6-methoxyisoquinolin-1-yl)oxy)-9-methyl-5,16-dioxo-2,3,5,6,7,9,10,11,13a,14,14a,15,16,16a-tetradecahydro-1H-cyclopropa[i]pyrrolo[1,2-e][1,5,8]oxadiazacyclopentadecin-6-yl)carbamate], the EC50 lay within 0.51 to 1 nM in assay [1] (read-out: LE_1b (EC50, range)) and 1.01 to 5 nM in assay [2] (read-out: LE_1a (EC50, range)).
The corresponding values for `CC[C@@H]1OCCC/C=C\[C@@H]2C[C@@]2(C(=O)NS(=O)(=O)C2(C)CC2)NC(=O)[C@@H]2C[C@@H](Oc3ncc(OC)c4ccccc34)CN2C(=O)[C@H]1NC(=O)OC(C)(C)C(F)(F)F` [Compound 1011] are 0.51 to 1 nM and 0.51 to 1 nM.
As to `CC[C@@H]1O[C@H](C)CC/C=C\[C@@H]2C[C@@]2(C(=O)NS(=O)(=O)C2(C)CC2)NC(=O)[C@@H]2C[C@@H](Oc3ncc(OC)c4ccccc34)CN2C(=O)[C@H]1NC(=O)OC(C)(C)C(F)(F)F` [Compound 1003], the EC50 lay in the range of 0.1 to 0.5 nM in assay [1] (read-out: LE_1b (EC50, range)) and 0.51 to 1 nM in assay [2] (read-out: LE_1a (EC50, range)).
On to `COc1cc2ccnc(O[C@@H]3C[C@H]4C(=O)N[C@]5(C(=O)NS(=O)(=O)C6(C)CC6)C[C@H]5/C=C\CC[C@@H](C)O[C@@H](C)[C@H](NC(=O)OC(C)(C)C(C)(F)F)C(=O)N4C3)c2cc1F` [Compound 2006, 3,3-difluoro-2-methylbutan-2-yl ((2R,6S,7S,9R,13aS,14aR,16aS,Z)-2-((7-fluoro-6-methoxyisoquinolin-1-yl)oxy)-7,9-dimethyl-14a-(((1-methylcyclopropyl)sulfonyl)carbamoyl)-5,16-dioxo-2,3,5,6,7,9,10,11,13a,14,14a,15,16,16a-tetradecahydro-1H-cyclopropa[i]pyrrolo[1,2-e][1,5,8]oxadiazacyclopentadecin-6-yl)carbamate], for which the EC50 lay in the range of 0.1 to 0.5 nM in assay [1] (read-out: LE_1b (EC50, range)) and 1.01 to 5 nM in assay [2] (read-out: LE_1a (EC50, range)).
As to `COc1cc(F)cc2c(O[C@@H]3C[C@H]4C(=O)N[C@]5(C(=O)NS(=O)(=O)C6(CF)CC6)C[C@H]5/C=C\CC[C@@H](C)O[C@@H](C)[C@H](NC(=O)OC(C)(C)C(C)(F)F)C(=O)N4C3)nccc12` [Compound 2021, 3,3-difluoro-2-methylbutan-2-yl ((2R,6S,7S,9R,13aS,14aR,16aS,Z)-2-((7-fluoro-5-methoxyisoquinolin-1-yl)oxy)-14a-(((1-(fluoromethyl)cyclopropyl)sulfonyl)carbamoyl)-7,9-dimethyl-5,16-dioxo-2,3,5,6,7,9,10,11,13a,14,14a,15,16,16a-tetradecahydro-1H-cyclopropa[i]pyrrolo[1,2-e][1,5,8]oxadiazacyclopentadecin-6-yl)carbamate], the EC50 in assay [1] (read-out: LE_1b (EC50, range)) lay in the range of 0.51 to 1 nM; in assay [2] (read-out: LE_1a (EC50, range)), 1.01 to 5 nM.
In the case of `CC[C@@H]1O[C@H](C)CC/C=C\[C@@H]2C[C@@]2(C(=O)NS(=O)(=O)C2(C)CC2)NC(=O)[C@@H]2C[C@@H](Oc3nccc4c5c(ccc34)OCCO5)CN2C(=O)[C@H]1NC(=O)OC(C)(C)C` [Compound 2611, tert-butyl ((2R,6S,7S,9R,13aS,14aR,16aS,Z)-2-((2,3-dihydro-[1,4]dioxino[2,3-f]isoquinolin-7-yl)oxy)-7-ethyl-9-methyl-14a-(((1-methylcyclopropyl)sulfonyl)carbamoyl)-5,16-dioxo-2,3,5,6,7,9,10,11,13a,14,14a,15,16,16a-tetradecahydro-1H-cyclopropa[i]pyrrolo[1,2-e][1,5,8]oxadiazacyclopentadecin-6-yl)carbamate], the EC50 in assay [1] (read-out: LE_1b (EC50, range)) lay within 0.51 to 1 nM; in assay [2] (read-out: LE_1a (EC50, range)), 1.01 to 5 nM.
For the molecule `COc1ccc2c(O[C@@H]3C[C@H]4C(=O)N[C@]5(C(=O)NS(=O)(=O)C6(C)CC6)C[C@H]5/C=C\CC[C@@H](C)O[C@@H](C)[C@H](NC(=O)OC(C)(C)C(F)(F)F)C(=O)N4C3)nc3c(c2c1)CCCO3` [Compound 2306, 1,1,1-trifluoro-2-methylpropan-2-yl ((2R,6S,7S,9R,13aS,14aR,16aS,Z)-2-((9-methoxy-2,3-dihydro-1H-pyrano[2,3-c]isoquinolin-6-yl)oxy)-7,9-dimethyl-14a-(((1-methylcyclopropyl)sulfonyl)carbamoyl)-5,16-dioxo-2,3,5,6,7,9,10,11,13a,14,14a,15,16,16a-tetradecahydro-1H-cyclopropa[i]pyrrolo[1,2-e][1,5,8]oxadiazacyclopentadecin-6-yl)carbamate], the half-maximal effective concentration (EC50) lay within 0.1 to 0.5 nM in assay [1] (read-out: LE_1b (EC50, range)) and 0.1 to 0.5 nM in assay [2] (read-out: LE_1a (EC50, range)).
Take `C[C@@H]1CC/C=C\[C@@H]2C[C@@]2(C(=O)NS(=O)(=O)C2(C)CC2)NC(=O)[C@@H]2C[C@@H](Oc3nc4c(c5ccccc35)CCCO4)CN2C(=O)[C@@H](NC(=O)OC(C)(C)C(C)(F)F)[C@H](C)O1` [Compound 2303, 3,3-difluoro-2-methylbutan-2-yl ((2R,6S,7S,9R,13aS,14aR,16aS,Z)-2-((2,3-dihydro-1H-pyrano[2,3-c]isoquinolin-6-yl)oxy)-7,9-dimethyl-14a-(((1-methylcyclopropyl)sulfonyl)carbamoyl)-5,16-dioxo-2,3,5,6,7,9,10,11,13a,14,14a,15,16,16a-tetradecahydro-1H-cyclopropa[i]pyrrolo[1,2-e][1,5,8]oxadiazacyclopentadecin-6-yl)carbamate]: the EC50 in assay [1] (read-out: LE_1b (EC50, range)) was 0.51 to 1 nM; in assay [2] (read-out: LE_1a (EC50, range)), 0.51 to 1 nM.
For the molecule `CC[C@@H]1O[C@H](C)CC/C=C\[C@@H]2C[C@@]2(C(=O)NS(=O)(=O)C2(C)CC2)NC(=O)[C@@H]2C[C@@H](Oc3cc(OC)nc4cc(OC)ccc34)CN2C(=O)[C@H]1NC(=O)OC(C)(C)C(F)(F)F` [Compound 1019, 1,1,1-trifluoro-2-methylpropan-2-yl ((2R,6S,7S,9R,13aS,14aR,16aS,Z)-2-((2,7-dimethoxyquinolin-4-yl)oxy)-7-ethyl-9-methyl-14a-(((1-methylcyclopropyl)sulfonyl)carbamoyl)-5,16-dioxo-2,3,5,6,7,9,10,11,13a,14,14a,15,16,16a-tetradecahydro-1H-cyclopropa[i]pyrrolo[1,2-e][1,5,8]oxadiazacyclopentadecin-6-yl)carbamate], the 50% effective concentration (EC50) in assay [1] (read-out: LE_1b (EC50, range)) lay within 0.1 to 0.5 nM; in assay [2] (read-out: LE_1a (EC50, range)), 1.01 to 5 nM.
The corresponding values for `COc1ccc2c(O[C@@H]3C[C@H]4C(=O)N[C@]5(C(=O)NS(=O)(=O)C6(C)CC6)C[C@H]5/C=C\CC[C@@H](C)O[C@@H](C)[C@H](NC(=O)OC(C)(C)C(C)(F)F)C(=O)N4C3)nc3c(c2c1)CCCO3` [Compound 2309, 3,3-difluoro-2-methylbutan-2-yl ((2R,6S,7S,9R,13aS,14aR,16aS,Z)-2-((9-methoxy-2,3-dihydro-1H-pyrano[2,3-c]isoquinolin-6-yl)oxy)-7,9-dimethyl-14a-(((1-methylcyclopropyl)sulfonyl)carbamoyl)-5,16-dioxo-2,3,5,6,7,9,10,11,13a,14,14a,15,16,16a-tetradecahydro-1H-cyclopropa[i]pyrrolo[1,2-e][1,5,8]oxadiazacyclopentadecin-6-yl)carbamate] are 0.51 to 1 nM and 0.51 to 1 nM.
Turning to `COc1ccc2c(O[C@@H]3C[C@H]4C(=O)N[C@]5(C(=O)NS(=O)(=O)C6(CF)CC6)C[C@H]5/C=C\CC[C@@H](C)O[C@@H](C)[C@H](NC(=O)OC(C)(C)C(C)(F)F)C(=O)N4C3)nccc2c1` [Compound 2014, 3,3-difluoro-2-methylbutan-2-yl ((2R,6S,7S,9R,13aS,14aR,16aS,Z)-14a-(((1-(fluoromethyl)cyclopropyl)sulfonyl)carbamoyl)-2-((6-methoxyisoquinolin-1-yl)oxy)-7,9-dimethyl-5,16-dioxo-2,3,5,6,7,9,10,11,13a,14,14a,15,16,16a-tetradecahydro-1H-cyclopropa[i]pyrrolo[1,2-e][1,5,8]oxadiazacyclopentadecin-6-yl)carbamate], the EC50 in assay [1] (read-out: LE_1b (EC50)) is 0.66 nM; in assay [1] (read-out: LE_1b (EC50, range)), 0.51 to 1 nM; in assay [2] (read-out: LE_1a (EC50)), 2.38 nM; in assay [2] (read-out: LE_1a (EC50, range)) it was 1.01 to 5 nM.

The values are drawn from US9598433B2, “Hepatitis C virus inhibitors” (BRISTOL-MYERS SQUIBB COMPANY, priority 2012, dated 2017).
